Assay results taken from the supplement of paper PMC10307832.

Assays:
Test in all cases: relative viability (nuclei count vs DMSO), 5 days (fraction); higher = more cells survive
[1] = compound: COCC[n+]1c2c(n(Cc3cnccn3)c1C)C(=O)c1ccccc1C2=O [YM155] + COc1cccc2cc(-c3nc([C@H]4CC[C@H](C(=O)O)CC4)n4ncnc(N)c34)[nH]c12 [OSI-027] (partner 0.5 µM)
Summary of the method: (§1)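 After 5 days of treatment, lung cancer cells in 1536-well plates were fixed and stained in a single step (final 0.05% Triton X-100, 1% formaldehyde, 1 ug/ml Hoechst) and their nuclei counted on 4× images. Treatment had been applied by pin tool the day after seeding as one drug alone or as a fixed anchor-drug dose with five library-drug doses (not always all listed) in √10 steps. Relative viability is the nuclei count of treated wells divided by that of vehicle wells, and values are medians of duplicate plates.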

[2] = compound: COCC[n+]1c2c(n(Cc3cnccn3)c1C)C(=O)c1ccccc1C2=O [YM155] + Cc1nc(NC(=O)N2CCC[C@H]2C(N)=O)sc1-c1ccnc(C(C)(C)C(F)(F)F)c1 [Alpelisib] (partner 2 µM)
Summary of the method: as §1

[3] = compound: COCC[n+]1c2c(n(Cc3cnccn3)c1C)C(=O)c1ccccc1C2=O [YM155] + O=C(CCCCCCC(=O)Nc1ccccc1)NO [Vorinostat] (partner 1 µM)
Summary of the method: as §1

[4] = compound: COCC[n+]1c2c(n(Cc3cnccn3)c1C)C(=O)c1ccccc1C2=O [YM155] + C[C@]1(O)C[C@@H](c2nc(-c3ccc4ccc(-c5ccccc5)nc4c3)c3c(N)nccn32)C1 [Linsitinib] (partner 1 µM)
Summary of the method: as §1

Cell Line	relative viability ([1]; first compound 0.002 µM)	relative viability ([1]; first compound 0.006325 µM)	relative viability ([1]; first compound 0.02 µM)	relative viability ([1]; first compound 0.06325 µM)	relative viability ([2]; first compound 0.002 µM)	relative viability ([2]; first compound 0.006325 µM)	relative viability ([2]; first compound 0.02 µM)	relative viability ([2]; first compound 0.06325 µM)	relative viability ([3]; first compound 0.002 µM)	relative viability ([3]; first compound 0.006325 µM)	relative viability ([3]; first compound 0.02 µM)	relative viability ([3]; first compound 0.06325 µM)	relative viability ([4]; first compound 0.002 µM)	relative viability ([4]; first compound 0.006325 µM)	relative viability ([4]; first compound 0.02 µM)	relative viability ([4]; first compound 0.06325 µM)
NCI-H3122	0.995	1	1.05	0.715	0.67	0.665	0.751	0.82	0.828	0.746	1.05	0.976	0.97	1	0.993	1.09
NCI-H1563	0.752	0.754	0.652	0.741	0.916	0.977	0.895	0.902					1.26	1.38	1.24	1.28
HCC-78	0.361	0.379	0.385	0.383	0.341	0.436	0.361	0.438	0.469	0.458	0.429	0.472	0.615	0.494	0.486	0.598
LK-2	0.187	0.21	0.214	0.201	1.17	1.05	1.13	1.12	0.304	0.139	0.388	0.305	0.425	0.764	0.491	0.796
RERF-LC-KJ	0.663	0.637	0.618	0.633	0.806	0.705	0.771	0.842	0.694	0.794	0.654	0.759	0.859	0.878	0.923	0.864
NCI-H1944	0.364	0.381	0.445	0.485	0.83	0.756	0.803	0.905	0.596	0.511	0.599	0.629	1.14	1.15	1.19	1.32
ChaGo-K-1	0.474	0.536	0.549	0.662					0.772	0.744	0.787	0.747				
NCI-H1734	0.599	0.586	0.616	0.684	0.63	0.658	0.697	0.776	0.826	0.799	0.891	0.84	0.916	0.811	0.889	0.979
201T	0.629	0.696	0.751	0.754	1.01	1.03	1.05	1.02	0.931	0.96	0.982	0.961	0.98	0.984	1.03	1.06
HCC-827	0.678	0.805	0.76	0.842	0.982	1.04	1.06	0.993	0.875	0.961	0.835	0.835	0.954	1.01	0.928	0.941
LCLC-97TM1	0.442	0.539	0.548	0.469	0.297	0.228	0.272	0.328		0.817	0.753	0.481	0.2	0.183	0.161	0.212
NCI-H441	0.468	0.496	0.537	0.381	0.733	0.644	0.567	0.429	0.741	0.716	0.741	0.268	0.461	0.486	0.557	0.353
EBC-1					0.786	0.862	0.95	0.9					0.8	0.925	0.864	0.755
NCI-H838	0.361	0.406	0.421	0.438	0.971	0.991	1.05	0.316	0.705	0.759	0.68	0.377	0.935	0.997	1.03	0.485
NCI-H1437	0.838	0.844	0.871	0.783	0.958	1.03	0.993	0.835	0.83	0.809	0.833	0.432	0.994	1.05	0.989	0.878
NCI-H522	0.752	0.599	0.715	0.753					0.846	0.78	0.933	0.932				
LXF-289	0.723	0.856	0.767	0.785	1.02	1.04	0.967	0.939	0.739	0.789	0.73	0.756	0.97	0.86	0.999	0.828
LU99A	0.285	0.274	0.322	0.28	0.541	0.453	0.456	0.439	0.508	0.419	0.514	0.441	0.581	0.503	0.554	0.545
NCI-H1623	0.469	0.456	0.471	0.701												
NCI-H1703					0.292	0.394	0.373	0.339					0.474	1.25	0.622	0.411
NCI-H2342	0.555	0.701	0.666	0.623					0.717	0.724	0.705	0.704				
A549					0.673	0.759	0.838	0.35					0.61	0.576	0.544	0.732
NCI-H1650	0.677	0.783	0.594	0.613					0.545	0.427	0.468	0.3				
NCI-H1299					0.993	1.01	1.05	1.07					1	0.962	1	0.88
NCI-H2170	0.698	0.785	0.695	0.74	0.866	0.855	0.889	0.877	0.725	0.752	0.863	0.842				
Calu-6					0.937	0.578	0.309	0.252					0.946	0.836	0.848	0.175
